The target of this test is human TRPV4 (Homo sapiens (Human), UniProt Q9HBA0). The test can be described thus: FLIPR assay for hTRPV4 expressed in BHK cells. It counts as cell-based. The gist of the method: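 BHK/AC9 cells transduced with BacMam human TRPV4 (MOI 78), 15,000 cells/well, cultured 24 h at 37 °C. Loaded with 2 μM Fluo-4 AM and 500 μM Brilliant Black in HBSS for 1–1.5 h at room temperature in the dark. Intracellular calcium influx monitored by fluorescence.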

The mark [1] stands for this setting: inhibition of Agonist Compound (EC80)-induced calcium signal, BHK/AC9 cells expressing human TRPV4, read-out: IC50.

Where a name gives a salt, the structure may show the parent alone. Read-outs that look alike come from different tables or passages of the source.

Chain of human TRPV4 (Q9HBA0 whole entry): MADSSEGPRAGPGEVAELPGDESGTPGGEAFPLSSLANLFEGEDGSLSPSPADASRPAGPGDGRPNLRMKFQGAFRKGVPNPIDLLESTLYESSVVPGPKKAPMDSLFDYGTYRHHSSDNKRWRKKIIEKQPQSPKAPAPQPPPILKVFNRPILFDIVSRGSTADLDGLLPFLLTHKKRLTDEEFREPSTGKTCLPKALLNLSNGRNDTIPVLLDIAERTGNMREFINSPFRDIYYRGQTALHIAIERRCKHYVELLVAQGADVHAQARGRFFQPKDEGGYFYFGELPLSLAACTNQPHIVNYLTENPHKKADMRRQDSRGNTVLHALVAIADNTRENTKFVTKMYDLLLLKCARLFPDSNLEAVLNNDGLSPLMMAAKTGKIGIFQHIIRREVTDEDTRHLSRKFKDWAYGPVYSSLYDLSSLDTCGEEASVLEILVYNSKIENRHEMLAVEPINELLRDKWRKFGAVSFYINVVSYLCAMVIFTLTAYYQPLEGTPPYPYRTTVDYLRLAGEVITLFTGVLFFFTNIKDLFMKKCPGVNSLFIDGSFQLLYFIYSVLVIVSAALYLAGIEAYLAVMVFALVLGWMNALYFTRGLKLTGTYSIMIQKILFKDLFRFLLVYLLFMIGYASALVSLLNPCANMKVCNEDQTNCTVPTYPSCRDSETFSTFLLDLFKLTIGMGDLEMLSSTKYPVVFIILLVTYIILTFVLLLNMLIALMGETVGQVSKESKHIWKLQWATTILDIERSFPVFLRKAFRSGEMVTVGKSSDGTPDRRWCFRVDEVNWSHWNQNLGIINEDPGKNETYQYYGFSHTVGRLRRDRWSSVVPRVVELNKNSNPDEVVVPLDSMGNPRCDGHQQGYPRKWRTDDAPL

For `N#Cc1ccc(S(=O)(=O)N2C[C@H](S(=O)(=O)c3ccc(Cl)cn3)[C@@]3(CNCCO3)C2)c(Cl)c1` [Example 129, 3-chloro-4-(((4S,5R)-4-((5-chloropyridin-2-yl)sulfonyl)-6-oxa-2,9-diazaspiro[4.5]decan-2-yl)sulfonyl)benzonitrile, Hydrochloride], the IC50 under setting [1] was 0.01 to 0.1 µM.
Still for that read-out and setting: the figure for `O=S(=O)(c1ccc(C(F)(F)F)nc1)[C@H]1CN(S(=O)(=O)c2ccc(Cl)cc2Cl)C[C@@]1(O)CO` [Example 118, (3R,4S)-1-((2,4-dichlorophenyl)sulfonyl)-3-(hydroxymethyl)-4-((6-(trifluoromethyl)pyridin-3-yl)sulfonyl)pyrrolidin-3-ol] is 0.01 to 0.1 µM.
The same measure, in the same setting: to `N#Cc1ccc(S(=O)(=O)N2C[C@H](S(=O)(=O)c3ccc(C#N)c(F)c3)[C@@](O)(CO)C2)c(Cl)c1` [Example 3, 4-(((3S,4S)-1-((2-chloro-4-cyanophenyl)sulfonyl)-4-hydroxy-4-(hydroxymethyl)pyrrolidin-3-yl)sulfonyl)-2-fluorobenzonitrile] belongs 0.0001 to 0.01 µM.
`N#Cc1ccc(S(=O)(=O)[C@H]2CN(S(=O)(=O)c3ccc(Br)cc3C(F)(F)F)C[C@@]2(O)CO)cc1` [Example 30, 4-(((3S,4R)-1-((4-bromo-2-(trifluoromethyl)phenyl)sulfonyl)-4-hydroxy-4-(hydroxymethyl)pyrrolidin-3-yl)sulfonyl)benzonitrile]: under setting [1], the half-inhibitory concentration (IC50) was in the range of 0.0001 to 0.01 µM.
For the compound `N#Cc1ccc(S(=O)(=O)[C@H]2CN(S(=O)(=O)c3ccc(F)cc3C(F)(F)F)C[C@@]2(O)CO)cc1` [Example 29, 4-(((3S,4R)-1-((4-fluoro-2-(trifluoromethyl)phenyl)sulfonyl)-4-hydroxy-4-(hydroxymethyl)pyrrolidin-3-yl)sulfonyl)benzonitrile], the IC50 under setting [1] lay within 0.0001 to 0.01 µM.
On the same count and under the same terms, the figure for `N#Cc1ccc(S(=O)(=O)N2C[C@H](S(=O)(=O)c3ccc(Cl)c(F)c3)[C@](O)(CO)C2)c(Cl)c1` [Example 107, 3-chloro-4-(((3R,4S)-4-((4-chloro-3-fluorophenyl)sulfonyl)-3-hydroxy-3-(hydroxymethyl)pyrrolidin-1-yl)sulfonyl)benzonitrile] is 0.0001 to 0.01 µM; for `N#Cc1ccc(S(=O)(=O)[C@H]2CN(S(=O)(=O)c3ccc(C(F)(F)F)cc3Cl)C[C@@]2(O)CO)cc1` [Example 89, 4-(((3S,4R)-1-((2-chloro-4-(trifluoromethyl)phenyl)sulfonyl)-4-hydroxy-4-(hydroxymethyl)pyrrolidin-3-yl)sulfonyl)benzonitrile] it is 0.01 to 0.1 µM; for `N#Cc1ccc(S(=O)(=O)[C@H]2CN(S(=O)(=O)c3ccc(C(F)(F)F)cc3Br)C[C@@]2(O)CO)cc1` [Example 32, 4-(((3S,4R)-1-((2-bromo-4-(trifluoromethyl)phenyl)sulfonyl)-4-hydroxy-4-(hydroxymethyl)pyrrolidin-3-yl)sulfonyl)benzonitrile] it is 0.01 to 0.1 µM.
Take `O=S(=O)(c1ccc(Cl)c(F)c1)[C@H]1CN(S(=O)(=O)c2ccc(Cl)cc2Cl)C[C@@]1(O)CO` [Example 88, (3R,4S)-4-((4-chloro-3-fluorophenyl)sulfonyl)-1-((2,4-dichlorophenyl)sulfonyl)-3-(hydroxymethyl)pyrrolidin-3-ol]: the IC50 under setting [1] is 0.0001 to 0.01 µM.
For `N#Cc1ccc(S(=O)(=O)[C@H]2CN(S(=O)(=O)c3ccc(OC(F)(F)F)cc3Cl)C[C@]2(O)CO)cc1F` [Example 8, 4-(((3S,4S)-1-((2-chloro-4-(trifluoromethoxy)phenyl)sulfonyl)-4-hydroxy-4-(hydroxymethyl)pyrrolidin-3-yl)sulfonyl)-2-fluorobenzonitrile], the concentration for half-maximal inhibition (IC50) under setting [1] fell in the range of 0.01 to 0.1 µM.
`N#Cc1ccc(S(=O)(=O)N2C[C@H](S(=O)(=O)c3ccc(Cl)cn3)[C@](O)(CO)C2)c(Cl)c1` [Example 1, 3-chloro-4-(((3R,4S)-4-((5-chloropyridin-2-yl)sulfonyl)-3-hydroxy-3-(hydroxymethyl)pyrrolidin-1-yl)sulfonyl)benzonitrile]: the IC50 by setting is: (at least one set of experimental runs, TRPV4 FLIPR assay, read-out: average IC50) 0.005 µM; under setting [1], 0.0001 to 0.01 µM.
For `N#Cc1ccc(S(=O)(=O)N2C[C@H](S(=O)(=O)c3ccc(Br)cc3)[C@@](O)(CO)C2)c(Cl)c1` [Example 24, 4-(((3S,4S)-4-((4-bromophenyl)sulfonyl)-3-hydroxy-3-(hydroxymethyl)pyrrolidin-1-yl)sulfonyl)-3-chlorobenzonitrile], under setting [1], the IC50 lay in the range of 0.01 to 0.1 µM.
`N#Cc1ccc(S(=O)(=O)[C@H]2CN(S(=O)(=O)c3ccccc3C(F)(F)F)C[C@@]2(O)CO)cc1` [Example 41, 4-(((3S,4R)-4-hydroxy-4-(hydroxymethyl)-1-((2-(trifluoromethyl)phenyl)sulfonyl)pyrrolidin-3-yl)sulfonyl)benzonitrile]: the IC50 under setting [1] was in the range of 0.01 to 0.1 µM.
As to `O=S(=O)(c1ccc(C(F)(F)F)cc1)[C@H]1CN(S(=O)(=O)c2ccc(C(F)(F)F)cc2Cl)C[C@@]1(O)CO` [Example 96, (3R,4S)-1-((2-chloro-4-(trifluoromethyl)phenyl)sulfonyl)-3-(hydroxymethyl)-4-((4-(trifluoromethyl)phenyl)sulfonyl)pyrrolidin-3-ol], the IC50 under setting [1] is 0.01 to 0.1 µM.
Turning to `Cc1cc(C(F)(F)F)ccc1S(=O)(=O)N1C[C@H](S(=O)(=O)c2ccc(C#N)c(F)c2)[C@](O)(CO)C1` [Example 71, 2-fluoro-4-(((3S,4R)-4-hydroxy-4-(hydroxymethyl)-1-((2-methyl-4-(trifluoromethyl)phenyl)sulfonyl)pyrrolidin-3-yl)sulfonyl)benzonitrile], the IC50 under setting [1] was in the range of 0.01 to 0.1 µM.
For `CCOc1cc(C#N)ccc1S(=O)(=O)N1C[C@H](S(=O)(=O)c2ccc(Cl)cc2)[C@](O)(CO)C1` [Example 49, 4-(((3R,4S)-4-((4-chlorophenyl)sulfonyl)-3-hydroxy-3-(hydroxymethyl)pyrrolidin-1-yl)sulfonyl)-3-ethoxybenzonitrile], the IC50 under setting [1] was 0.01 to 0.1 µM.
On the same count and under the same terms, the figure for `CCc1ccc(S(=O)(=O)[C@H]2CN(S(=O)(=O)c3ccc(C#N)cc3Cl)C[C@@]2(O)CO)cc1` [Example 104, 3-chloro-4-(((3R,4S)-4-((4-ethylphenyl)sulfonyl)-3-hydroxy-3-(hydroxymethyl)pyrrolidin-1-yl)sulfonyl)benzonitrile] is 0.01 to 0.1 µM.
For the compound `N#Cc1ccc(S(=O)(=O)[C@H]2CN(S(=O)(=O)c3ccc(Cl)cc3C(F)(F)F)C[C@@]2(O)CO)cc1` [Example 25, 4-(((3S,4R)-1-((4-chloro-2-(trifluoromethyl)phenyl)sulfonyl)-4-hydroxy-4-(hydroxymethyl)pyrrolidin-3-yl)sulfonyl)benzonitrile], the half-inhibitory concentration (IC50) under setting [1] lay in the range of 0.0001 to 0.01 µM.
Consider `O=S(=O)(c1ccc(Cl)c(Cl)c1)[C@H]1CN(S(=O)(=O)c2ccc(Cl)cc2Cl)C[C@@]1(O)CO` [Example 114, (3R,4S)-1-((2,4-dichlorophenyl)sulfonyl)-4-((3,4-dichlorophenyl)sulfonyl)-3-(hydroxymethyl)pyrrolidin-3-ol], for which the half-inhibitory concentration (IC50) under setting [1] was 0.01 to 0.1 µM.
For the compound `COc1cc(C#N)ccc1S(=O)(=O)N1C[C@H](S(=O)(=O)c2ccc(C(F)(F)F)cc2)[C@](O)(CO)C1` [Example 56, 4-(((3R,4S)-3-hydroxy-3-(hydroxymethyl)-4-((4-(trifluoromethyl)phenyl)sulfonyl)pyrrolidin-1-yl)sulfonyl)-3-methoxybenzonitrile], the IC50 under setting [1] lay within 0.01 to 0.1 µM.
On to `N#Cc1ccc(S(=O)(=O)[C@H]2CN(S(=O)(=O)c3ccc(CF)cc3Cl)C[C@@]2(O)CO)cc1` [Example 44, 4-(((3S,4R)-1-((2-chloro-4-(fluoromethyl)phenyl)sulfonyl)-4-hydroxy-4-(hydroxymethyl)pyrrolidin-3-yl)sulfonyl)benzonitrile], for which the IC50 under setting [1] is 0.01 to 0.1 µM.
